System: not listed separately
Experiment: Chemical stability at room temperature
Type: physicochemical
Conditions: conversion to precursors 14 and 18

SMILES	chemical stability
Cc1cccc(C(=O)n2cc(C#N)c3nccnc32)c1 [Compound 19a, 5-(3-Methylbenzoyl)-5H-pyrrolo[2,3-b]pyrazine-7-carbonitrile]	not chemically stable
Cc1cccc(C(=O)n2ccc3nccnc32)c1 [Compound 15a, (5H-Pyrrolo[2,3-b]pyrazin-5-yl)(m-tolyl)methanone]	not chemically stable

Molecular target: T1, human neutrophil elastase (HNE) (Homo sapiens, UniProt P08246)
T1 sequence (P08246 30-267): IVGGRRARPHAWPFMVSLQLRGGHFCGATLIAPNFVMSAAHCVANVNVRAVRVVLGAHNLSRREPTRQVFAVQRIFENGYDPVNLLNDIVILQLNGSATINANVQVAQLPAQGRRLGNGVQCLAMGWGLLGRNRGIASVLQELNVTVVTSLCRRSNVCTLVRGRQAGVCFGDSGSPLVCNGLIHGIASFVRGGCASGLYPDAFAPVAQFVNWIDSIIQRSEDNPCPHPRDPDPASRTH
Experiment: HNE inhibition assay
Type: biochemical
Conditions: not given

SMILES	IC50 [µM]	HNE inhibitory activity (in words)
COc1cccc(CNC(=O)c2cnc3cc(C(C)(C)C)nn3c2C)c1 [Compound 22e, 2-(tert-Butyl)-N-(3-methoxybenzyl)-7-methylpyrazolo[1,5-a]pyrimidine-6-carboxamide]	> 50	
COc1cccc(NC(=O)c2cnc3cc(C)nn3c2C)c1 [Compound 22a, N-(3-Methoxyphenyl)-2,7-dimethylpyrazolo[1,5-a]pyrimidine-6-carboxamide]	> 50	
Cc1cccc(C(=O)n2cc(C#N)c3ccncc32)c1 [Compound 13e, 1-(3-Methylbenzoyl)-1H-pyrrolo[2,3-c]pyridine-3-carbonitrile]		reduced activity compared to the reference compounds B and C
N#Cc1nn(C(=O)C2CCCCC2)c2ncccc12 [Compound 2i, 1-(Cyclohexanecarbonyl)-1H-pyrazolo[3,4-b]pyridine-3-carbonitrile]		loss of activity
O=C(Nc1nn(C(=O)C2CC2)c2ncccc12)C1CC1 [Compound 7, N-(1-(Cyclopropanecarbonyl)-1H-pyrazolo[3,4-b]pyridin-3-yl)cyclopropanecarboxamide]	1.5 ± 0.14	
N#Cc1cn(C(=O)C2CC2)c2cnccc12 [Compound 13f, 1-(Cyclopropanecarbonyl)-1H-pyrrolo[2,3-c]pyridine-3-carbonitrile]		reduced activity compared to the reference compounds B and C
COc1cccc(CNC(=O)c2cnc3c(Cl)c(C(C)(C)C)nn3c2C)c1 [Compound 22f, 2-(tert-Butyl)-3-chloro-N-(3-methoxybenzyl)-7-methylpyrazolo[1,5-a]pyrimidine-6-carboxamide]	> 50	
COc1cccc(NC(=O)c2cnc3cc(C(C)(C)C)nn3c2C)c1 [Compound 22b, 2-(tert-Butyl)-N-(3-methoxyphenyl)-7-methylpyrazolo[1,5-a]pyrimidine-6-carboxamide]	> 50	
COc1cccc(CNC(=O)c2cnc3cc(C)nn3c2C)c1 [Compound 22d, N-(3-Methoxybenzyl)-2,7-dimethylpyrazolo[1,5-a]pyrimidine-6-carboxamide]	> 50	
O=C(C1CC1)n1ccc2nccnc21 [Compound 15b, Cyclopropyl(5H-pyrrolo[2,3-b]pyrazin-5-yl)methanone]		reduced activity by two orders of magnitude
CC(=O)n1nc(NC(=O)c2cccc(C)c2)c2cccnc21 [Compound 9, N-(1-Acetyl-1H-pyrazolo[3,4-b]pyridin-3-yl)-3-methylbenzamide]	25.2 ± 1.3	
N#Cc1nn(C(=O)c2ccccc2)c2ncccc12 [Compound 2d, 1-Benzoyl-1H-pyrazolo[3,4-b]pyridine-3-carbonitrile]	0.14	
COc1cccc(NC(=O)c2cnc3c(Cl)c(C(C)(C)C)nn3c2C)c1 [Compound 22c, 2-(tert-Butyl)-3-chloro-N-(3-methoxyphenyl)-7-methylpyrazolo[1,5-a]pyrimidine-6-carboxamide]	> 50	
N#Cc1nn(Cc2ccccc2)c2ncccc12 [Compound 2c, 1-Benzyl-1H-pyrazolo[3,4-b]pyridine-3-carbonitrile]	> 50	complete loss of HNE inhibitory activity

Same assay, conditions: HNE IC50 versus reference A

SMILES	fold less potent than A [fold]
Cc1cccc(C(=O)n2nc(C#N)c3cccnc32)c1 [Compound 2e, 1-(3-Methylbenzoyl)-1H-pyrazolo[3,4-b]pyridine-3-carbonitrile]	47
